In this experiment the target is D(2) dopamine receptor (Homo sapiens, UniProt P14416).

Each structure is given as a SMILES string.

Consider one compound from BindingDB's records for doi:10.1073/pnas.86.24.9762 (Oregon Health Sciences University, 1989).

A word on the Ki: it is a measure of affinity in units of concentration, obtained from inhibition or displacement.

Sequence of D(2) dopamine receptor (P14416 whole entry): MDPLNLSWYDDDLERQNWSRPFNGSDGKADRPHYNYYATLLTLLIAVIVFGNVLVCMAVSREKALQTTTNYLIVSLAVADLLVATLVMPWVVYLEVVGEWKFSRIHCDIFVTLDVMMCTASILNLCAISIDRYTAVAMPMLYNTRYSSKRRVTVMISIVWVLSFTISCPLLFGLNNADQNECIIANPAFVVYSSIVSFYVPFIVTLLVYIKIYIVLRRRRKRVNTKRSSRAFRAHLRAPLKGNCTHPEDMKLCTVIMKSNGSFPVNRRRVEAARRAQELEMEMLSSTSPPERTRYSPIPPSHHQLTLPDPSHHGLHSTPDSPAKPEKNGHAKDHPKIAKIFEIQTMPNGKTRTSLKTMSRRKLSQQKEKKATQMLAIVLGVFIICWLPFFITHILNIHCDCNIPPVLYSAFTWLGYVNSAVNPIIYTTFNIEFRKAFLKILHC

For the compound `CN1CCN2c3ccccc3Cc3ccccc3[C@H]2C1` [MIANSERIN (+)], the inhibition constant Ki was 2680 nM.
